Here are results for 2 molecules from patent publication US20250324972A1, “METHOD OF CONTROLLING NEMATODES” (priority 2022, published 2025).

Each structure is given as a SMILES string.

Data set [1] relates to Tomatoes of Aryman variety. Briefly: Open field trial on tomato: phytotoxicity evaluation. The data set is classed as in vivo. The procedure: An open field trial was conducted. Tomatoes of Aryman variety was used. The soil type was sandy loam.
Fertilizers were applied prior to bed formation. Plots were formed, with a total area of 25 m^2 per plot. Drip lines were laid in the plot beds (plot beds occupy half the field). Treatments were arranged in a randomized complete block design with two replications.
Fluensulfone emulsifiable concentrate (Nimitz® 480 EC) was used for the fluensulfone treatments. Additionally, comparative nematicides fluopyram (as Fluopyram® 500 SC) and carbofuran (as Carbofuran® 3% CG), were tested. Untreated control plots were formed for comparison.
In Table 1, time of application is expressed by DAT, which indicates the number of days relative to the date of planting.
Treatments 2 and 3 (of the invention): fluensulfone in the form of an emulsifiable concentrate (Nimitz® 480 EC) was applied at the day of planting (DAT=0), followed by a post-plant application twenty five days later (DAT=25). The application method consisted of the following steps. First, the soil was wetted by irrigation water. Then, at the day of planting, appropriate amounts of Nimitz® 480 EC were diluted in water and applied to achieve the application rates tabulated in Table 1. It was repeated on DAT=25. […]
Phytotoxicity was evaluated on DAT=7, 21, 32, and 46. […]

In another data set the test system is root-knot nematode. Briefly: Open field trial on tomato: root galling assessed with the root galling index (Bridge and Page chart). The data set is classed as in vivo.

From the text for root-knot nematode: The rating method is based on assigning an integer number in the interval from 0 (no knots on the roots) to 10 (all roots severely knotted indicative of plant death).
Treatments 2 and 3 (of the invention): fluensulfone in the form of an emulsifiable concentrate (Nimitz® 480 EC) was applied at the day of planting (DAT=0), followed by a post-plant application twenty five days later (DAT=25). The application method consisted of the following steps. First, the soil was wetted by irrigation water. Then, at the day of planting, appropriate amounts of Nimitz® 480 EC were diluted in water and applied to achieve the application rates tabulated in Table 1. […]
Root galling was assessed in the open-field trial, on DAT=25, 50, and 75, using the root galling index. […]

In the case of `O=C(NCCc1ncc(C(F)(F)F)cc1Cl)c1ccccc1C(F)(F)F` [fluopyram], the Phytotoxicity score in data set [1] (evaluated on DAT=7, 21, 32, and 46, fluopyram 500 SC 0 DAT @ 1250 ml/ha) is 65.
As for `O=S(=O)(CCC(F)=C(F)F)c1ncc(Cl)s1` [fluensulfone, 5-chloro-2-(3,4,4-trifluoro-but-3-ene-1-sulfonyl)-1,3-thiazole], the “average root galling indexes (RGI)” value in the data set with root-knot nematode (application initiated on the day of planting/transplanting, even seventy days after planting/transplanting) was “below 3”. The root galling index result with root-knot nematode (method of the invention, at least over 50 days and even 75 days after planting) was “below 2”. For the same molecule, the Phytotoxicity result in data set [1] (entire range of application rates tested, evaluated on DAT=7, 21, 32, and 46) is reported as “No phytotoxicity was observed”.
